Values quoted from earlier work, collected in patent publication US20120135949A1, “COMBINATION THERAPY FOR TREATING HCV INFECTION” (BOEHRINGER INGELHEIM INTERNATIONAL GMBH, priority 2010, published 2012).

Tested on: HCV
Conditions: compound (1) monotherapy, 14 days, 1a and 1b patients

Compound: C=C[C@@H]1C[C@]1(NC(=O)[C@@H]1C[C@H](Oc2cc(-c3csc(NC(=O)C(C)C)n3)nc3c(Br)c(OC)ccc23)CN1C(=O)[C@@H](NC(=O)OC1CCCC1)C(C)(C)C)C(=O)O [Compound (1)]
- Virologic rebound during the treatment period: vast majority of both 1a and 1b patients demonstrated virologic rebound
